Among the data in PubChem BioAssay (NCI) are TGI values, retold here.

Some test systems named below: OVCAR-4 ovarian; MCF7 breast; SK-MEL-2 melanoma; K-562 leukemia; SF-539 CNS.
Assay in all cases: growth of human tumour cells (NCI), 48 h

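The compound was tested at five concentrations on cells cultured in 96-well plates, with a 48-hour exposure period. TGI: total growth inhibition.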

`COc1ccc(C2SCC(=O)N2NC(=O)C(C)Oc2ccccc2Cl)cc1` (stereo not drawn): the TGI in the assay on OVCAR-4 ovarian is above 100 µM; in the assay on MCF7 breast, above 100 µM; in the assay on SK-MEL-2 melanoma, 50 µM; with K-562 leukemia it was above 100 µM; with SF-539 CNS, above 100 µM.

With `Cc1ccc(/C=N/Nc2nncc3ccccc23)s1`, the TGI is above 93.1 µM in the assay with OVCAR-4 ovarian; above 100 µM in the assay with MCF7 breast; above 100 µM in the assay with SK-MEL-2 melanoma; above 100 µM in the assay on K-562 leukemia; above 100 µM in the assay on SF-539 CNS.

Regarding `Cc1ccc(O)c(-c2csc(NCN3CCN(CNc4nc(-c5cc(C)ccc5O)cs4)CC3)n2)c1`, the TGI in the assay with OVCAR-4 ovarian, in the assay with MCF7 breast, in the assay with SK-MEL-2 melanoma, with K-562 leukemia and in the assay on SF-539 CNS was above 100 µM in each case.

On to `O=C1CCCCC[C@]12SC[C@H]1CON=C12`, for which the TGI in the assay with OVCAR-4 ovarian is above 100 µM; in the assay on MCF7 breast, 82.4 µM; in the assay with K-562 leukemia, above 100 µM; with SF-539 CNS, above 100 µM.

On to `CC(NC(=O)C(N)CC(=O)O)NC(=O)N1CCOCC1` (stereo not drawn), for which the TGI in the assay on OVCAR-4 ovarian, with MCF7 breast, in the assay with SK-MEL-2 melanoma, with K-562 leukemia and in the assay on SF-539 CNS was above 100 µM throughout.

Turning to `c1ccc(/N=C2\c3ccccc3CN2c2ccccn2)nc1`, the TGI in the assay with OVCAR-4 ovarian, with MCF7 breast, with SK-MEL-2 melanoma, in the assay on K-562 leukemia and with SF-539 CNS was above 100 µM throughout.

With `COc1cc2c3c(n(Cc4ccccc4)c(=O)c2cc1OC)-c1ccccc1C3=O`, the TGI with OVCAR-4 ovarian, in the assay on MCF7 breast, in the assay on SK-MEL-2 melanoma, with K-562 leukemia and in the assay with SF-539 CNS was above 100 µM each time.

As to `C/C(=N\O)c1cccc(Nc2nc3ccccc3c3occc23)c1`, the TGI in the assay on OVCAR-4 ovarian turned out to be 30.2 µM; in the assay with MCF7 breast, 37.1 µM; with K-562 leukemia, 70.5 µM; with SF-539 CNS, 29.6 µM.

Take `COc1cc(/C=C/C(=O)N[C@@H]2C(=O)N3[C@@H]2SC(C)(C)[C@@H]3C(=O)O)cc(OC)c1OC`: the TGI with OVCAR-4 ovarian, with MCF7 breast, in the assay on SK-MEL-2 melanoma, with K-562 leukemia and in the assay with SF-539 CNS was above 100 µM in each case.

Regarding `OCCN=C1c2ccccc2C2C(c3ccccc31)C1c3ccccc3C(=NCCO)c3ccccc3C21` (stereo not drawn), the TGI in the assay on OVCAR-4 ovarian came to 60.2 µM; in the assay on MCF7 breast, 60 µM; in the assay with SK-MEL-2 melanoma, 30.5 µM; in the assay on K-562 leukemia, 40.2 µM; in the assay on SF-539 CNS it was 36.5 µM.

In the case of `COC(OC)(c1ccccc1)C(I)I`, the TGI is 27.4 µM with OVCAR-4 ovarian; 47.4 µM in the assay on MCF7 breast; 35.4 µM in the assay on SK-MEL-2 melanoma; above 35.4 µM in the assay with K-562 leukemia; 17.6 µM with SF-539 CNS.

For `COC1(OC)C2(Cl)C(Cl)=C(Cl)C1(Cl)C1COCC12` (stereo not drawn), the TGI in the assay on OVCAR-4 ovarian, in the assay on MCF7 breast, in the assay on SK-MEL-2 melanoma, with K-562 leukemia and in the assay on SF-539 CNS was above 100 µM throughout.

As for `COc1ccc(CCc2ccc(O)c(C(=O)O)c2)cc1OC`, the TGI in the assay on OVCAR-4 ovarian, with MCF7 breast, with SK-MEL-2 melanoma, in the assay with K-562 leukemia and in the assay on SF-539 CNS was above 100 µM each time.

`O=C(CN1CCOCC1)CC(O)(C(F)(F)F)C(F)(F)F`: the TGI in the assay with OVCAR-4 ovarian, with MCF7 breast, with SK-MEL-2 melanoma, with K-562 leukemia and with SF-539 CNS was above 100 µM in each case.

As to `CC1=C(C(=O)NCC(C)O)CC(C(=O)NCC(C)O)=C(C)N1` (stereo not drawn), the TGI with OVCAR-4 ovarian, with MCF7 breast, with SK-MEL-2 melanoma, in the assay on K-562 leukemia and with SF-539 CNS was above 100 µM throughout.

Consider `O=CC1OC(=O)c2cc(O)c(O)c(O)c2-c2c(cc(O)c(O)c2O)C(=O)OC1C(O)C(O)CO` (stereo not drawn), for which the TGI is 37.8 µM in the assay with OVCAR-4 ovarian; 39.4 µM with MCF7 breast; above 100 µM with SK-MEL-2 melanoma; 44.2 µM in the assay on K-562 leukemia; above 100 µM with SF-539 CNS.

Regarding `COc1cc(C2SCC(=O)N2c2ccc(Cl)cc2)cc(I)c1O` (stereo not drawn), the TGI in the assay on OVCAR-4 ovarian is above 67.5 µM; in the assay with MCF7 breast, above 100 µM; with SK-MEL-2 melanoma it was above 100 µM; with K-562 leukemia it was above 100 µM; in the assay with SF-539 CNS, above 100 µM.

For the compound `CC(C)CC1[C@@H](OCc2ccccc2)COS(=O)(=O)N1Cc1ccccc1` (stereo partly drawn), the TGI in the assay on OVCAR-4 ovarian, in the assay on MCF7 breast, with SK-MEL-2 melanoma, with K-562 leukemia and in the assay on SF-539 CNS was above 100 µM in each case.

Turning to `Cc1ccc2cccc3c2c1CC1(C3=O)S(=O)(=O)OCCOS1(=O)=O`, the TGI with OVCAR-4 ovarian, in the assay on MCF7 breast, in the assay with SK-MEL-2 melanoma, in the assay on K-562 leukemia and in the assay with SF-539 CNS was above 100 µM throughout.

As for `N#CC(N=Nc1ccccc1)c1nc2ccccc2o1` (stereo not drawn), the TGI with OVCAR-4 ovarian was 37.9 µM; with MCF7 breast, above 100 µM; in the assay on SK-MEL-2 melanoma, 70.5 µM; with K-562 leukemia, above 100 µM; with SF-539 CNS it was 28.8 µM.

Consider `CCOC(=O)COc1c(OC)cc(C2C3=C(COC3=O)Oc3cc4c(cc32)OCO4)cc1OC` (stereo not drawn), for which the TGI was 24.9 µM in the assay on OVCAR-4 ovarian; above 100 µM in the assay on MCF7 breast; above 100 µM in the assay on SK-MEL-2 melanoma; 12.2 µM in the assay with K-562 leukemia; 43 µM in the assay with SF-539 CNS.

As for `CSc1nc(O)c(/C=C2\C=Nc3ccccc32)[nH]1`, the TGI with OVCAR-4 ovarian, in the assay on MCF7 breast, in the assay with SK-MEL-2 melanoma, with K-562 leukemia and in the assay with SF-539 CNS was above 100 µM in each case.

As for `CC(C)(C)OC(=O)Nc1cc(-c2ccccc2)co1`, the TGI in the assay on OVCAR-4 ovarian, in the assay on MCF7 breast, with SK-MEL-2 melanoma, with K-562 leukemia and in the assay on SF-539 CNS was above 100 µM each time.
